Assay results from ChEMBL document CHEMBL4665641, “Lead optimization and efficacy evaluation of quinazoline-based BET family inhibitors for potential treatment of cancer and inflammatory diseases” (Bioorg Med Chem Lett, 2019).

Key:
[1] = system: Kasumi 1; experiment: Antitumor activity against human Kasumi-1 cells xenografted in CB17 SCID mouse assessed as inhibition of tumor growth at 10 mg/kg, po QD for 25 days; type: functional; conditions: Kasumi 1, po, 600 h, time 25 day, read-out: TGI
[2] = system: Kasumi 1; experiment: Antitumor activity against human Kasumi-1 cells xenografted in CB17 SCID mouse assessed as tumor volume at 40 mg/kg, po QD for 25 days (reference value: 2189 +/- 604 mm3); type: functional; conditions: time 25 day
[3] = system: Kasumi 1; experiment: Antitumor activity against human Kasumi-1 cells xenografted in CB17 SCID mouse assessed as tumor weight at 40 mg/kg, po QD for 25 days (reference value: 2.57 +/-0.27 g); type: functional; conditions: time 25 day
[4] = Half life in CD-1 mouse at 10 mg/kg, po; type: ADME, organism-based; conditions: in vivo
[5] = Cmax in CD-1 mouse at 10 mg/kg, po; type: ADME, organism-based; design: route oral, dose 10 mg/kg; conditions: CD-1, mouse, in vivo, read-out: Cmax
[6] = AUC(0 to infinity) in CD-1 mouse at 2 mg/kg, iv; type: ADME, organism-based; design: time infinity, route intravenous, dose 2 mg/kg; conditions: mouse, in vivo
[7] = Volume of distribution at steady state in CD-1 mouse at 2 mg/kg, iv; type: ADME, organism-based; conditions: in vivo, read-out: Vdss
[8] = Stability in rat liver microsomes assessed as half life; type: ADME, Microsome
[9] = Toxicity in CD1 mouse assessed as clinical abnormalities at 50 to 100 mg/kg, po administered once daily for 5 days and observed for 5 days after last dose; type: organism-based; conditions: in vivo, 120 h, dose 50-100 mg/kg, time 5 day
[10] = Apparent permeability across apical to basolateral side in human Caco2 cells; type: ADME, cell-based; conditions: caco-2
[11] = molecular target: T1, CYP3A4 (Homo sapiens, UniProt P08684); experiment: Inhibition of human CYP3A4 at 10 uM using midazolam as substrate relative to control; type: ADME; conditions: probe midazolam
[12] = molecular target: T1, CYP3A4; experiment: Inhibition of human CYP3A4 at 10 uM using testosterone as substrate relative to control; type: ADME; conditions: probe testosterone
[13] = molecular target: CYP2D6 (Homo sapiens, UniProt P10635); experiment: Inhibition of human CYP2D6 at 10 uM relative to control; type: ADME
[14] = molecular target: Voltage-gated inwardly rectifying potassium channel KCNH2 (Homo sapiens, UniProt Q12809); experiment: Inhibition of human ERG by manual patch clamp assay
[15] = Toxicity in CB17 SCID mouse xenografted with human Kasumi-1 cells assessed body weight loss at 10 to 40 mg/kg, po QD for 25 days; type: organism-based; conditions: in vivo, 600 h, dose 10-40 mg/kg, time 25 day
[16] = Drug uptake in tumor tissue of CB17 SCID mouse xenografted with human Kasumi-1 cells at 10 mg/kg, po QD for 25 days and measured after 24 hrs post last dose; type: ADME, organism-based, Neoplasm; conditions: time 25 day, read-out: Drug uptake
[17] = Drug uptake in tumor tissue of CB17 SCID mouse xenografted with human Kasumi-1 cells at 40 mg/kg, po QD for 25 days and measured after 24 hrs post last dose; type: ADME, organism-based, Neoplasm; conditions: time 25 day, read-out: Drug uptake
[18] = Toxicity in collagen/CFA induced arthritis DBA/1 mouse model assessed as body weight at 50 mg/kg, po administered via gavage starting from day 21 to day 41 post collagen/CFA challenge and measured on day 21 relative to initial weight (reference value: 94.96%); type: organism-based; conditions: in vivo, 504 h, time 21 day
[19] = system: Mus musculus; experiment: Antiarthritic activity in collagen/complete freund's adjuvant-induced arthritis DBA/1 mouse model assessed as hind paw histological score at 50 mg/kg, po administered via gavage starting from day 21 to day 41 post collagen/CFA challenge and measured on day 42 by hematoxylin-eosin staining based assay (reference value: 2.66 +/- 0.44 au); type: functional; conditions: time 21 day
[20] = system: Mus musculus; experiment: (§1) Antiinflammatory activity in collagen/complete freund's adjuvant-induced arthritis DBA/1 mouse model assessed as IL-1 beta level in rear right paw at 50 mg/kg, po administered via gavage starting from day 21 to day 41 post collagen/CFA challenge and measured on day 42 measured per mg protein (reference value: 3.15 pg); type: functional; conditions: time 21 day
[21] = system: Mus musculus; experiment: as §1, with “IL-2” for “IL-1 beta”, “0.2” for “3.15”; type: functional; conditions: time 21 day
[22] = system: Mus musculus; experiment: as §1, with “MCP-1” for “IL-1 beta”, “126.24” for “3.15”; type: functional; conditions: time 21 day
[23] = Apparent permeability across basolateral to apical side in human Caco2 cells; type: ADME, cell-based; conditions: caco-2
[24] = system: Kasumi 1; experiment: Antitumor activity against human Kasumi-1 cells xenografted in CB17 SCID mouse assessed as tumor weight at 10 mg/kg, po QD for 29 days (reference value: 2.1+/- 0.3 g); type: functional; conditions: time 29 day
[25] = system: Kasumi 1; experiment: Antitumor activity against human Kasumi-1 cells xenografted in CB17 SCID mouse assessed as inhibition of tumor growth at 10 mg/kg, po QD for 29 days; type: functional; conditions: Kasumi 1, po, 696 h, time 29 day, read-out: TGI
[26] = system: Mus musculus; experiment: as §1, with “IFN-gamma” for “IL-1 beta”, “0.78” for “3.15”; type: functional; conditions: time 21 day
[27] = system: Mus musculus; experiment: as §1, with “M-CSF” for “IL-1 beta”, “3.49” for “3.15”; type: functional; conditions: time 21 day
[28] = system: Mus musculus; experiment: as §1, with “VEGF” for “IL-1 beta”, “0.98” for “3.15”; type: functional; conditions: time 21 day
[29] = molecular target: T2, Bromodomain-containing protein 2 (Homo sapiens, UniProt P25440); experiment: Binding affinity to human partial length BRD2 (BD1) (K71 to N194 residues) expressed in bacterial expression system by BROMOscan assay
[30] = molecular target: T2, Bromodomain-containing protein 2; experiment: Binding affinity to human partial length BRD2 (BD1,2) (K71 to D455 residues) expressed in bacterial expression system by BROMOscan assay
[31] = molecular target: T2, Bromodomain-containing protein 2; experiment: Binding affinity to human partial length BRD2 (BD2) (E348 to D455 residues) expressed in bacterial expression system by BROMOscan assay
[32] = molecular target: T3, Bromodomain-containing protein 3 (Homo sapiens, UniProt Q15059); experiment: Binding affinity to human partial length BRD3 (BD1) (P24 to E144 residues) expressed in bacterial expression system by BROMOscan assay
[33] = molecular target: T3, Bromodomain-containing protein 3; experiment: Binding affinity to human partial length BRD3 (BD2) (G306 to P416 residues) expressed in bacterial expression system by BROMOscan assay
[34] = molecular target: T4, Bromodomain-containing protein 4 (Homo sapiens, UniProt O60885); experiment: Binding affinity to human partial length BRD4 (BD1) (N44 to E168 residues) expressed in bacterial expression system by BROMOscan assay
[35] = molecular target: T4, Bromodomain-containing protein 4; experiment: Binding affinity to human partial length BRD4 (BD2) (K333 to E460 residues) expressed in bacterial expression system by BROMOscan assay
[36] = Drug metabolism in rat assessed as oxidised metabolite formation by MetID study analysis; type: ADME

T2 sequence (P25440 whole entry, the tested form may be a part): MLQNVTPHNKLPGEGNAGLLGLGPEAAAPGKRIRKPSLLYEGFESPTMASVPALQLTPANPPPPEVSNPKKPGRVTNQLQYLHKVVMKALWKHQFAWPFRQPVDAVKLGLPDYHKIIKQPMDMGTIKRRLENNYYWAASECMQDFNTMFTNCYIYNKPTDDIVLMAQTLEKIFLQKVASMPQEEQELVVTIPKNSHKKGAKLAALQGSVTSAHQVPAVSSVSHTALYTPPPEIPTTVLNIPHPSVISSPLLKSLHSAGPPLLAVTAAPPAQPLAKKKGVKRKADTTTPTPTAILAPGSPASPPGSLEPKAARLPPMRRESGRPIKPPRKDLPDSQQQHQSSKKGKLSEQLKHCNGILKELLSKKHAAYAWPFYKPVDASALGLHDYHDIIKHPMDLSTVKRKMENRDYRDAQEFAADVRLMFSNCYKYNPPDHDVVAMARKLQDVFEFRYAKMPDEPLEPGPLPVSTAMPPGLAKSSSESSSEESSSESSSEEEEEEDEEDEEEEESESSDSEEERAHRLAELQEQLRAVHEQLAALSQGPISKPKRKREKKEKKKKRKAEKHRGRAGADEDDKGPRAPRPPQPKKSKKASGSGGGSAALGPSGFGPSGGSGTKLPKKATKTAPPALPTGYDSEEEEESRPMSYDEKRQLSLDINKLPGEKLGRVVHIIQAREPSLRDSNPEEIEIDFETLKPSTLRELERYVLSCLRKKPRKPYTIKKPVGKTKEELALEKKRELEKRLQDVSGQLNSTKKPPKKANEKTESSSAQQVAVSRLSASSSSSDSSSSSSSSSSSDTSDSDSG
T3 sequence (Q15059 whole entry, the tested form may be a part): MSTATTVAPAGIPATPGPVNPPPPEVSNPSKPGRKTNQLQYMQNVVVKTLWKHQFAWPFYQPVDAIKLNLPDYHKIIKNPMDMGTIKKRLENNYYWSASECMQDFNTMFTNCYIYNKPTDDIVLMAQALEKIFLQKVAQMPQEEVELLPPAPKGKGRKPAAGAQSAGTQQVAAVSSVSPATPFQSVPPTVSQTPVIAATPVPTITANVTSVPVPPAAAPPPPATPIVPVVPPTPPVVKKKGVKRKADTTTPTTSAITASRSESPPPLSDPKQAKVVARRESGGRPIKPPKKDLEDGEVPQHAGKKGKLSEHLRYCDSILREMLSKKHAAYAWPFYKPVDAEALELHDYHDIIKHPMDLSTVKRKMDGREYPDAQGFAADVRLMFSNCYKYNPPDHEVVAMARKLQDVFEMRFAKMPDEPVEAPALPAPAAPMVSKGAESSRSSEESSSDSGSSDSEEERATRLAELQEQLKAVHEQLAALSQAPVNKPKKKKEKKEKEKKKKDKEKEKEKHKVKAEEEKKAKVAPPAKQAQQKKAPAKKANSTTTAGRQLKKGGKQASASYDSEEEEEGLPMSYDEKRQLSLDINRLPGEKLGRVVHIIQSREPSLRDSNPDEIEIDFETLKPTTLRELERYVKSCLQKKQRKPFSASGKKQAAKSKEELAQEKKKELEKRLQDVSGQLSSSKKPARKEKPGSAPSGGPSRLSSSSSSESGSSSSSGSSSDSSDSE
T1 sequence (P08684 whole entry): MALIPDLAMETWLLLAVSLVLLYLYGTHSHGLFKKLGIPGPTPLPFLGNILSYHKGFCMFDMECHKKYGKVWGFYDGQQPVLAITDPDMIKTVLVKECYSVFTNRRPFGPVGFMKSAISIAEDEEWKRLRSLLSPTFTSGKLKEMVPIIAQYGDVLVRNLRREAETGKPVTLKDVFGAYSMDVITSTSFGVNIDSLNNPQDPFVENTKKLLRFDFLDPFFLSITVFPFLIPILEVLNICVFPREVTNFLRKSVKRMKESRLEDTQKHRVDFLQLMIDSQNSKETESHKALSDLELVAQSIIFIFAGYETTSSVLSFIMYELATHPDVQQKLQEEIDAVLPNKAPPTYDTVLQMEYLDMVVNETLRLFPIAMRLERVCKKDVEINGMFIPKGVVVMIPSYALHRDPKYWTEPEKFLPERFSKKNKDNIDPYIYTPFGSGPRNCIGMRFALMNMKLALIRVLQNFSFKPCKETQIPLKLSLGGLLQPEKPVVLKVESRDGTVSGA
Sequence of Voltage-gated inwardly rectifying potassium channel KCNH2 (Q12809 whole entry): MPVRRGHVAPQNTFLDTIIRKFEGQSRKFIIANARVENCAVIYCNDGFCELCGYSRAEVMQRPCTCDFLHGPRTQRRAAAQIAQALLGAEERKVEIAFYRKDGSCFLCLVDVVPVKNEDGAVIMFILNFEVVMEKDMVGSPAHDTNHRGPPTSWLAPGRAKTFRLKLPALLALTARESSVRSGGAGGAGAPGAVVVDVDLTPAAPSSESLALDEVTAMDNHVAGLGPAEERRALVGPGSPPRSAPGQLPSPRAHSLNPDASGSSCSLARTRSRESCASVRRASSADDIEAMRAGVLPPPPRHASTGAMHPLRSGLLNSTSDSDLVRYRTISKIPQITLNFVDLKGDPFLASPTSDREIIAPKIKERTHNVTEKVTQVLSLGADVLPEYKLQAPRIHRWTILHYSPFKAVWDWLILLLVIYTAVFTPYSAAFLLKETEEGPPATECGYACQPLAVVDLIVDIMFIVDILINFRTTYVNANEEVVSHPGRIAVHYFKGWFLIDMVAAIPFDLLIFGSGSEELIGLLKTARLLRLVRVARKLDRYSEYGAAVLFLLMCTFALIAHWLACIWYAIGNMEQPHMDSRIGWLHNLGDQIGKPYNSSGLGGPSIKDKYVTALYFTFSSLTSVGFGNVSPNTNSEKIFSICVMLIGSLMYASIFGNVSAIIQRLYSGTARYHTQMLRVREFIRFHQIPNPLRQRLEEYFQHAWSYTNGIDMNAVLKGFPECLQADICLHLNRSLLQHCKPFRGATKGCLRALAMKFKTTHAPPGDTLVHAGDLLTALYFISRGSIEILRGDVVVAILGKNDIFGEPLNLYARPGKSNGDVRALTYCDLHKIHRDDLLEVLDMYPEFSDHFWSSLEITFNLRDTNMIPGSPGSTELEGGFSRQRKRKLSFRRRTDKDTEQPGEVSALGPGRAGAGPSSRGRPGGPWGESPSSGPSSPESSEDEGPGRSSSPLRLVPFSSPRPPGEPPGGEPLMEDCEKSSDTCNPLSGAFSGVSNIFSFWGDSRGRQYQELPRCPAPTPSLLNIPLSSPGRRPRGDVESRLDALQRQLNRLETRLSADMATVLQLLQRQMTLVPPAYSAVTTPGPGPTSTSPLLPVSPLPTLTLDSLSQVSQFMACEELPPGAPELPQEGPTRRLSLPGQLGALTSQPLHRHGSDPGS
Sequence of CYP2D6 (P10635 whole entry): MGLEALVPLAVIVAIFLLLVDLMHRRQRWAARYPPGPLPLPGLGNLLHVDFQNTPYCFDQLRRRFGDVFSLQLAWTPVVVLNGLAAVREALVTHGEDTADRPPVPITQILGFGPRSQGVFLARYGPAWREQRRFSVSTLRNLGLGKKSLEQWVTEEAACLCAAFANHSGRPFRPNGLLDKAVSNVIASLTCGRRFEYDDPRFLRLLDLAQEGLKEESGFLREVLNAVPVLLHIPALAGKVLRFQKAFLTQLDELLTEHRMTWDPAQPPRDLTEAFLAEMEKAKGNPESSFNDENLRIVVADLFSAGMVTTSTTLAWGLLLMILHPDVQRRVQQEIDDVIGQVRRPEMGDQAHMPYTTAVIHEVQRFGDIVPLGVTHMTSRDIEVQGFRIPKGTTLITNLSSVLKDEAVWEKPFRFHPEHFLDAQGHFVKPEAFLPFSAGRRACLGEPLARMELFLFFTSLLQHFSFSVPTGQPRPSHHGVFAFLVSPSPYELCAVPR

In the case of Cc1noc(C)c1-c1ccc2nc(-c3cnn(CC(C)(C)O)c3)nc(N3CCOC[C@@H]3c3ccccc3)c2c1, the inhibition in vivo at 10 mg/kg [1] is reported as 41.4%, the Activity [2] is reported as 66 mm3 and the Activity [3] is reported as 0.04 g. It also gave a half-life [4] of 1.7 h, a Cmax [5] of 2160 ng/mL and an AUC [6] of 5025 ng·h/mL. The Vd [7] was 1.04 L/kg, the half-life [8] was 0.7 h and the Activity [9] was “Non-Toxic”. The Papp [10] was 18.2 10^-6 cm/s, the inhibition at 10 µM [11] was under 50% and the inhibition at 10 µM [12] was under 50%. The inhibition at 10 µM [13] was under 50%, the IC50 [14] was 6500 nM and the Activity [15] was “Non-Toxic”. It also gave a concentration at 600 h [16] of 56 ng/g, a concentration at 600 h [17] of 2260 ng/g and an Activity [18] of 101.92%. The Activity [19] was 0.5 a.u, the Activity [20] was 2.06 pg and the Activity [21] was 0.3 pg. For the same molecule, the Activity [22] was 8.48 pg, the Papp [23] was 18.4 10^-6 cm/s and the Activity [24] was 1.22 g. The inhibition in vivo at 10 mg/kg [25] was 41.9%, the Activity [26] was 1.29 pg and the Activity [27] was 2.89 pg. It also gave an Activity [28] of 1.6 pg, a Kd [29] of 45 nM and a Kd [30] of 87 nM. It also gave a Kd [31] of 200 nM, a Kd [32] of 11 nM and a Kd [33] of 44 nM. For the same molecule, the Kd [34] was 17 nM, the Kd [35] was 81 nM and the Drug metabolism [36] was “Metabolite_Detected”.
